Test results: patent publication US20080063628A1, “METHODS TO PROMOTE CELL DIFFERENTIATION” (priority 2006, published 2008)

Test system: amniotic fluid-derived cells
Test: Chronic trichostatin A treatment, gene expression by RT-PCR (Example 4)
Format: cell-based, human
Experimental: Amniotic fluid derived cells were obtained according to the methods described in Example 14. Cells were seeded into a 24-well tissue culture plate at a density of 5000/cm^2 and cultured in AMNIOMAX (Invitrogen) under standard cell culture conditions until confluent. After the cells reached confluency, sample wells were treated with either 500 nM or 1.0 μM trichostatin A diluted in DMSO and medium; control wells were treated with an equivalent concentration of DMSO. At 24 hour intervals over the three day incubation period, cultures underwent a complete medium change, and a fresh dilution of trichostatin A or DMSO was added as appropriate.
RNA samples were obtained from the treated cultures at 24 hour intervals after the initial addition of trichostatin A or DMSO. The culture medium was removed, cells were washed with PBS, and RLT lysis buffer with P-mercaptoethanol (Qiagen) was added. RNA was purified using the RNeasy Mini Kit (Qiagen); RNA quantity and quality was determined using a spectrophotometer. cDNA was made using the iScript cDNA synthesis kit (BioRad).
Expression levels of Sox17, HNF-3 beta, Pdx-1, insulin, and glucagon were determined by RT-PCR. Samples of 20 ng cDNA were used in each reaction, performed on an Applied Biosystems 7500 according to the methods described in Example 15. Data were analyzed using the accompanying software. Human pancreas cDNA was included as a control. Results were normalized against GAPDH expression levels. Basal expression of insulin and Sox-17 genes was detectable in untreated amniotic fluid-derived cells. However, expression of glucagon and Pdx-1 genes was not detectable in untreated cells by RT-PCR up to cycle 40. HNF-3 beta was not detected in untreated cells at 24-hours in culture but was weakly expressed at 48 and 72 hours culture time.
Real-time PCR amplifcation and quantitative analysis. Unless otherwise stated, all reagents were purchased from Applied Biosystems. Real-time PCR reactions were performed using the ABI PRISM™ 7500 Sequence Detection System. TAQMAN™ FAST UNIVERSAL PCR MASTER MIX™ (ABI, CA) was used with 20 ng of reverse transcribed RNA in a total reaction volume of 20 μl. Each cDNA sample was run in duplicate to allow correction of pipetting errors. Primers and FAM-labeled TAQMAN™ probes were used at concentrations of 200 nM. The level of expression for each target gene was normalized using the pre-developed Applied Biosystem's human glyceraldehyde-3-phosphate dehydrogenase (GAPDH) endogenous control kit. Primers and probes were designed using either ABI PRISM PRIMER EXPRESS™ software or a pre-developed ABI gene analysis kit. For each gene, either one of the primers or the probe were designed to be exon-boundary spanning. This eliminated the possibility of the primers/probe binding to any genomic DNA present. The primer and probe sets are listed as follows: Pdx-1 (Hs00426216), Insulin (Hs00355773), glucagon (Hs00174967), and FoxA2 (HNF 3-beta) (Hs00232764). The remaining primers were designed using the PRIMERS program (ABI, CA). After an initial 95° C. incubation for 20 sec, samples were cycled 40 times in two stages: a denaturation step at 95° C. for 3 sec, followed by an annealing/extension step at 60° C. for 30 sec.
For each primer/probe set, a cycle time value was determined as the cycle number at which the fluorescence intensity of the PCR reaction reached a specific value in the middle of the exponential region of amplification. An increase in expression of a gene corresponded to a decrease in the number of cycles required for the fluorescence intensity to reach this value.

CC(/C=C/C(=O)NO)=C\[C@@H](C)C(=O)c1ccc(N(C)C)cc1 [trichostatin A] was tested, and the HNF-3 beta gene expression (500 nM renewed daily, 24 hours) was “+++ (detectable at less than 35 cycles by RT-PCR with std error less than 0.9)”, the Insulin gene expression (500 nM renewed daily, 24 hours) was “nd (not detectable at >40 cycles by RT-PCR)” and the PDX-1 gene expression (500 nM renewed daily, 24 hours) was “+++ (detectable at less than 35 cycles by RT-PCR with std error less than 0.9)”. The Sox17 gene expression (500 nM renewed daily, 24 hours) was “+++ (detectable at less than 35 cycles by RT-PCR with std error less than 0.9)”, the glucagon gene expression (500 nM renewed daily, 24 hours) was “+ (detectable between 35 and 40 cycles by RT-PCR)” and the HNF-3b gene expression (500 nM renewed daily, 48 hours) was “+++ (detectable at less than 35 cycles by RT-PCR with std error less than 0.9)”. For the same molecule, the Insulin gene expression (500 nM renewed daily, 48 hours) was “nd (not detectable at >40 cycles by RT-PCR)”, the PDX-1 gene expression (500 nM renewed daily, 48 hours) was “+ (detectable between 35 and 40 cycles by RT-PCR)” and the Sox17 gene expression (500 nM renewed daily, 48 hours) was “+++ (detectable at less than 35 cycles by RT-PCR with std error less than 0.9)”. For the same molecule, the glucagon gene expression (500 nM renewed daily, 48 hours) was “+ (detectable between 35 and 40 cycles by RT-PCR)”, the HNF-3b gene expression (500 nM renewed daily, 72 hours) was “+++ (detectable at less than 35 cycles by RT-PCR with std error less than 0.9)” and the Insulin gene expression (500 nM renewed daily, 72 hours) was “nd (not detectable at >40 cycles by RT-PCR)”. The PDX-1 gene expression (500 nM renewed daily, 72 hours) was “+++ (detectable at less than 35 cycles by RT-PCR with std error less than 0.9)”, the Sox17 gene expression (500 nM renewed daily, 72 hours) was “+++ (detectable at less than 35 cycles by RT-PCR with std error less than 0.9)” and the glucagon gene expression (500 nM renewed daily, 72 hours) was “+ (detectable between 35 and 40 cycles by RT-PCR)”. The HNF-3 beta gene expression (1 μM renewed daily, 24 hours) was “+++ (detectable at less than 35 cycles by RT-PCR with std error less than 0.9)”, the Insulin gene expression (1 μM renewed daily, 24 hours) was “nd (not detectable at >40 cycles by RT-PCR)” and the PDX-1 gene expression (1 μM renewed daily, 24 hours) was “+++ (detectable at less than 35 cycles by RT-PCR with std error less than 0.9)”. The Sox17 gene expression (1 μM renewed daily, 24 hours) was “+++ (detectable at less than 35 cycles by RT-PCR with std error less than 0.9)”, the glucagon gene expression (1 μM renewed daily, 24 hours) was “+++ (detectable at less than 35 cycles by RT-PCR with std error less than 0.9)” and the HNF-3b gene expression (1 μM renewed daily, 48 hours) was “+++ (detectable at less than 35 cycles by RT-PCR with std error less than 0.9)”. For the same molecule, the Insulin gene expression (1 μM renewed daily, 48 hours) was “nd (not detectable at >40 cycles by RT-PCR)”, the PDX-1 gene expression (1 μM renewed daily, 48 hours) was “+++ (detectable at less than 35 cycles by RT-PCR with std error less than 0.9)” and the Sox17 gene expression (1 μM renewed daily, 48 hours) was “+++ (detectable at less than 35 cycles by RT-PCR with std error less than 0.9)”. The glucagon gene expression (1 μM renewed daily, 48 hours) was “++ (detectable at less than 35 cycles by RT-PCR with std error greater than 0.9)”, the HNF-3b gene expression (1 μM renewed daily, 72 hours) was “+++ (detectable at less than 35 cycles by RT-PCR with std error less than 0.9)” and the Insulin gene expression (1 μM renewed daily, 72 hours) was “nd (not detectable at >40 cycles by RT-PCR)”. For the same molecule, the PDX-1 gene expression (1 μM renewed daily, 72 hours) was “+++ (detectable at less than 35 cycles by RT-PCR with std error less than 0.9)”, the Sox17 gene expression (1 μM renewed daily, 72 hours) was “+++ (detectable at less than 35 cycles by RT-PCR with std error less than 0.9)” and the glucagon gene expression (1 μM renewed daily, 72 hours) was “+++ (detectable at less than 35 cycles by RT-PCR with std error less than 0.9)”.
